This test deals with T1, Human M4 (Homo sapiens, UniProt P08173).
T1 construct: Human or rat M4 cDNA, along with the chimeric G protein Gqi5, were transfected into Chinese hamster ovary (CHO-K1) cells; expressed in transfected cells; host or cells: CHO-K1 (Chinese hamster ovary, ATCC), stably co-expressing Gqi5
T1 sequence (P08173 1-479): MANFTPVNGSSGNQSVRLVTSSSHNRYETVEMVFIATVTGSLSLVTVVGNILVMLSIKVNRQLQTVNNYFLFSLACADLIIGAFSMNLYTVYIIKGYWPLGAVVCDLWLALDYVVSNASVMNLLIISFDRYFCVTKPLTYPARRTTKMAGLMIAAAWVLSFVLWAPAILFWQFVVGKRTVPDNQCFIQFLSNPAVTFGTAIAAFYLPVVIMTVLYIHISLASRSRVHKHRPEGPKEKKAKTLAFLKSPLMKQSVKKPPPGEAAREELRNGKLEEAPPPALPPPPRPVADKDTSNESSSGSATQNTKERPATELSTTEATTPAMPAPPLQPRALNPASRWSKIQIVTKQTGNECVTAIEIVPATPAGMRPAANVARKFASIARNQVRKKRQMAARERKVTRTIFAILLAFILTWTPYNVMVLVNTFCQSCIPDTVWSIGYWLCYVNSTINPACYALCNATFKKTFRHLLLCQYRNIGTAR
Nature of the test: mAChR M4 cell-based functional assay (calcium flux, decrease of EC80 acetylcholine response). The following applies: for remaining activity at 30 µM: % ACh maximum at 30 μM, read-out: Human M4 Emin; for IC50: M4/Gqi5/CHO-K1 cells, decrease of response to EC80 acetylcholine. On the procedure:
Human or rat M4 cDNA, along with the chimeric G protein Gqi5, were transfected into Chinese hamster ovary (CHO-K1) cells purchased from the American Type Culture Collection using Lipofectamine2000. M4/Gqi5/CHO cells were grown in Ham's F-12 medium containing 10% heat-inactivated fetal bovine serum (FBS), 20 mM HEPES, 500 μg/mL G418 sulfate, and 200 μg/mL Hygromycin B.
For high throughput measurement of agonist-evoked increases in intracellular calcium, CHO-K1 cells stably expressing muscarinic receptors were plated in growth medium lacking G418 and hygromycin at 15,000 cells/20 μL/well in Greiner 384-well black-walled, tissue culture (TC)-treated, clear-bottom plates (VWR). Cells were incubated overnight at 37° C. and 5% CO2. The next day, cells were washed using an ELX 405 (BioTek) with assay buffer; the final volume was then aspirated to 20 μL. Next, 20 μL of a 2.3 μM stock of Fluo-4/acetoxymethyl ester (Invitrogen, Carlsbad, Calif.), prepared as a 2.3 mM stock in DMSO and mixed in a 1:1 ratio with 10% (w/v) Pluronic F-127 and diluted in assay buffer, was added to the wells and the cell plates were incubated for 50 min at 37° C. and 5% CO2. Dye was removed by washing with the ELX 405 and the final volume was aspirated to 20 μL. Compound master plates were formatted in a 10 point concentration-response curve (CRC) format (1:3 dilutions) in 100% DMSO with a starting concentration of 10 or 1 mM using a BRAVO liquid handler (Agilent). Test compound CRCs were then transferred to daughter plates (240 nL) using the Echo acoustic plate reformatter (Labcyte, Sunnyvale, Calif.) and then diluted into assay buffer (40 μL) to a 2×stock using a Thermo Fisher Combi (Thermo Fisher Scientific, Waltham, Mass.).
Calcium flux was measured using the Functional Drug Screening System (FDSS) 6000 or 7000 (Hamamatsu Corporation, Tokyo, Japan) as an increase in the fluorescent static ratio. Compounds were applied to cells (20 μL, 2×) using the automated system of the FDSS at 2 seconds into the protocol and the data were collected at 1 Hz. At 143 s, 10 μL of an EC20 concentration of the muscarinic receptor agonist acetylcholine was added (5×), followed by the addition of 12 μL of an EC80 concentration of acetylcholine at the 268 s time point (5×). Agonist activity was analyzed as a concentration-dependent increase in calcium mobilization upon compound addition. Positive allosteric modulator activity was analyzed as a concentration-dependent increase in the EC20 acetylcholine response. Antagonist activity was analyzed as a concentration-dependent decrease in the EC80 acetylcholine response; for the purposes of the tables herein, an IC50 (inhibitory concentration 50) was calculated as a concentration-dependent decrease of the response elicited by an EC80 concentration of acetylcholine. Concentration-response curves were generated using a four-parameter logistical equation in XLFit curve fitting software (IDBS, Bridgewater, N.J.) for Excel (Microsoft, Redmond, Wash.) or Prism (GraphPad Software, Inc., San Diego, Calif.) or the Dotmatics software platform (Dotmatics, Bishop's Stortford, UK).
Compounds were synthesized as described above. Activity (IC50 and Emin) was determined in the mAChR M4 cell-based functional assay as described above and the data are shown in Table 2.

Turning to `Fc1ccc(F)c(-c2cc(C(F)(F)F)c(N[C@H]3C[C@@H]4CN(CC5CCOCC5)C[C@@H]4C3)nn2)c1` [Example 38, (3aR,5s,6aS)-N-(6-(2,5-difluorophenyl)-4-(trifluoromethyl)pyridazin-3-yl)-2-((tetrahydro-2H-pyran-4-yl)methyl)octahydro-cyclopenta[c]pyrrol-5-amine], the remaining activity at 30 µM was found to be 3% and the IC50 turned out to be 207 nM.
The like results for `Cc1ccc(F)cc1-c1cc(C(F)(F)F)c(N[C@H]2C[C@@H]3CN(C[C@@H]4CC5CCC4O5)C[C@@H]3C2)nn1` (stereo partly drawn) [Example 24, (3aR,5s,6aS)-2-(((2S)-7-oxabicyclo[2.2.1]heptan-2-yl)methyl)-N-(6-(5-fluoro-2-methylphenyl)-4-(trifluoromethyl)pyridazin-3-yl)octahydro-cyclopenta[c]pyrrol-5-amine] were, in that order, 3% and 7 nM.
The like results for `Cc1ccc(F)cc1-c1cc(C(F)(F)F)c(N[C@H]2C[C@@H]3CN(CC4CCCOC4)C[C@@H]3C2)nn1` (stereo partly drawn) [Example 28, (3aR,5s,6aS)-N-(6-(5-fluoro-2-methylphenyl)-4-(trifluoromethyl)pyridazin-3-yl)-2-((tetrahydro-2H-pyran-3-yl)methyl)octahydro-cyclopenta[c]pyrrol-5-amine] were, in that order, 4% and 9.5 nM.
Turning to `Fc1ccc(Cl)c(-c2cc(C(F)(F)F)c(N[C@H]3C[C@@H]4CN(Cc5ccccn5)C[C@@H]4C3)nn2)c1` [Example 100, (3aR,5s,6aS)-N-(6-(2-chloro-5-fluorophenyl)-4-(trifluoromethyl)pyridazin-3-yl)-2-(pyridin-2-ylmethyl)octahydro-cyclopenta[c]pyrrol-5-amine], the remaining activity at 30 µM stood at 4% and the IC50 was 269 nM.
Taken in the same sequence, the figures for `FC1(F)CCN(c2cc(C(F)(F)F)c(N[C@H]3C[C@@H]4CN(CC5CCOCC5)C[C@@H]4C3)nn2)C1` [Example 141, (3aR,5s,6aS)-N-(6-(3,3-difluoropyrrolidin-1-yl)-4-(trifluoromethyl)pyridazin-3-yl)-2-((tetrahydro-2H-pyran-4-yl)methyl)octahydro-cyclopenta[c]pyrrol-5-amine] were 2% and 8.3 nM.
Regarding `[2H]C([2H])(C1CCOCC1)N1C[C@H]2C[C@H](Nc3nnc(-c4cc(F)ccc4C)cc3C(F)(F)F)C[C@H]2C1` [Example 17, (3aR,5s,6aS)-N-(6-(5-fluoro-2-methylphenyl)-4-(trifluoro-methyl)pyridazin-3-yl)-2-((tetrahydro-2H-pyran-4-yl)methyl-d2)octahydro-cyclopenta[c]pyrrol-5-amine], the remaining activity at 30 µM worked out at 3% and the IC50 is 11.3 nM.
The like results for `[2H][C@@]1(Oc2nnc(-c3cc(F)ccc3C)cc2C(F)(F)F)C[C@H]2CN(CC3CCOCC3)C[C@H]2C1` [Example 135, (3aR,5s,6aS)-5-((6-(5-fluoro-2-methylphenyl)-4-(trifluoro-methyl)pyridazin-3-yl)oxy)-2-((tetrahydro-2H-pyran-4-yl)methyl)octahydro-cyclopenta[c]pyrrole-5-d] were, in that order, 4% and 622 nM.
Regarding `C[C@@H]1CCCN(c2cc(C(F)(F)F)c(N[C@H]3C[C@@H]4CN(CC5CCOCC5)C[C@@H]4C3)nn2)C1` [Example 136, (3aR,5s,6aS)-N-(6-((R)-3-methylpiperidin-1-yl)-4-(trifluoromethyl)pyridazin-3-yl)-2-((tetrahydro-2H-pyran-4-yl)methyl)octahydro-cyclopenta[c]pyrrol-5-amine], the remaining activity at 30 µM came to 2% and the IC50 was 20.6 nM.
Regarding `[2H]C([2H])(C1CCOCC1)N1C[C@H]2C[C@H](Nc3nnc(-c4ccc5c(c4)ncn5C)cc3C(F)(F)F)C[C@H]2C1` [Example 111, (3aR,5s,6aS)-N-(6-(1-methyl-1H-benzo[d]imidazol-5-yl)-4-(trifluoro-methyl)pyridazin-3-yl)-2-((tetrahydro-2H-pyran-4-yl)methyl-d2)octahydro-cyclopenta[c]pyrrol-5-amine], the remaining activity at 30 µM is 3% and the IC50 was 136 nM.
Taken in the same sequence, the figures for `[2H]C([2H])([2H])OC([2H])([2H])c1ccc(F)cc1-c1cc(C(F)(F)F)c(N[C@H]2C[C@@H]3CN(CC4CCOCC4)C[C@@H]3C2)nn1` [Example 47, (3aR,5s,6aS)-N-(6-(5-fluoro-2-((methoxy-d3)methyl-d2)phenyl)-4-(trifluoromethyl)pyridazin-3-yl)-2-((tetrahydro-2H-pyran-4-yl)methyl)octahydro-cyclopenta[c]pyrrol-5-amine] were 4% and 70.9 nM.
Take `Cn1cc2cc(-c3cc(C#N)c(N[C@H]4C[C@@H]5CN(C[C@H]6CC7CCC6O7)C[C@@H]5C4)nn3)ccc2n1` (stereo partly drawn) [Example 161, 3-(((3aR,5s,6aS)-2-(((2R)-7-oxabicyclo[2.2.1]heptan-2-yl)methyl)octahydro-cyclopenta[c]pyrrol-5-yl)amino)-6-(2-methyl-2H-indazol-5-yl)pyridazine-4-carbonitrile]: the remaining activity at 30 µM turned out to be 5% and the IC50 was 2 nM.
On to `Cn1cc2cc(-c3cc(C(F)(F)F)c(N[C@H]4C[C@@H]5CN(C[C@H]6CC7CCC6O7)C[C@@H]5C4)nn3)ccc2n1` (stereo partly drawn) [Example 27, (3aR,5s,6aS)-2-(((2R)-7-oxabicyclo[2.2.1]heptan-2-yl)methyl)-N-(6-(2-methyl-2H-indazol-5-yl)-4-(trifluoromethyl)pyridazin-3-yl)octahydro-cyclopenta[c]pyrrol-5-amine], for which the remaining activity at 30 µM came out at 3% and the IC50 was 74.3 nM.
For `Cc1ccc(F)cc1-c1cc(C(F)(F)F)c(N[C@H]2C[C@@H]3CN(C[C@H]4CC5CCC4O5)C[C@@H]3C2)nn1` (stereo partly drawn) [Example 25, (3aR,5s,6aS)-2-(((2R)-7-oxabicyclo[2.2.1]heptan-2-yl)methyl)-N-(6-(5-fluoro-2-methylphenyl)-4-(trifluoromethyl)pyridazin-3-yl)octahydro-cyclopenta[c]pyrrol-5-amine], the remaining activity at 30 µM turned out to be 2% and the IC50 worked out at 11.1 nM.
For `Cn1cc2cc(-c3cnc(N[C@H]4C[C@@H]5CN(Cc6ccc7c(c6)OCO7)C[C@@H]5C4)nc3)ccc2n1` [Example 13, (3aR,5s,6aS)-2-(benzo[d][1,3]dioxol-5-ylmethyl)-N-(5-(2-methyl-2H-indazol-5-yl)pyrimidin-2-yl)octahydro-cyclopenta[c]pyrrol-5-amine], the remaining activity at 30 µM stood at 10% and the IC50 worked out at 5290 nM.
In the case of `Cc1ccc(F)cc1-c1cc(C(F)(F)F)c(N[C@H]2C[C@@H]3CN(C[C@@H]4CCOC4)C[C@@H]3C2)nn1` [Example 30, (3aR,5s,6aS)-N-(6-(5-fluoro-2-methylphenyl)-4-(trifluoromethyl)pyridazin-3-yl)-2-(((S)-tetrahydrofuran-3-yl)methyl)octahydro-cyclopenta[c]pyrrol-5-amine], the remaining activity at 30 µM is 4% and the IC50 amounted to 55.6 nM.

Values taken from US20230183219A1, “CONDENSED SUBSTITUTED HYDROPYRROLES AS ANTAGONISTS OF THE MUSCARINIC ACETYLCHOLINE RECEPTOR M4” (Vanderbilt University, priority 2020, published 2023).
